Experimental data as given in US20230357179A1, “RAF KINASE INHIBITORS AND METHODS OF USE THEREOF” (Deciphera Pharmaceuticals, LLC, priority 2021, published 2023).

Assays:
[1] = molecular target: T1, A-Raf kinase (Homo sapiens, UniProt P10398, Y301D/Y302D); assay: Biochemical assay for A-Raf.1 (coupled pyruvate kinase/lactate dehydrogenase); conditions: read-out: ARAF.1 IC50
T1 construct: purchased Sigma
Method in brief: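 A-Raf (5.55 nM) phosphorylating 30.1 nM MEK with 1 mM ATP was monitored by pyruvate kinase/lactate dehydrogenase-coupled NADH oxidation at 340 nm for 6 h at 30° C, in pH 7.5 Tris buffer with 15 mM MgCl2, 1% DMSO. Rates from 4–5 h gave percent inhibition; IC50 by four-parameter fit.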

[2] = molecular target: T2, B-Raf kinase (Homo sapiens, UniProt P15056); assay: Biochemical assay for B-Raf.1 (coupled pyruvate kinase/lactate dehydrogenase); conditions: read-out: BRAF.1 IC50
T2 construct: GST (N); purchased Sigma
T2 sequence (P15056 416-766): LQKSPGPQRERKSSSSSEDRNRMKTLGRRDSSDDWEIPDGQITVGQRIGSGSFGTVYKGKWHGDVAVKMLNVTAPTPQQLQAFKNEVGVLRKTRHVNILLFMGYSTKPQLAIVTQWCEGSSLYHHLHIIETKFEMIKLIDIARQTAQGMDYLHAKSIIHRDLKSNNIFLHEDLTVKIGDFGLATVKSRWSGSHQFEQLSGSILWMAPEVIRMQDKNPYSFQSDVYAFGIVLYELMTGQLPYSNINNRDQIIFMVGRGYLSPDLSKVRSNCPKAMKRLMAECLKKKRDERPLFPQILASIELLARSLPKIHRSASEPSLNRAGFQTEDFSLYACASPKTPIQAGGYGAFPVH
Method in brief: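 NADH oxidation followed at 340 nm in a pyruvate kinase/lactate dehydrogenase-coupled assay with 0.13 nM B-Raf, 30.1 nM MEK substrate, 1 mM ATP, pH 7.5 Tris buffer, 1% DMSO. Monitored 6 h at 30 °C; rate taken from 4–5 h. IC50 from four-parameter sigmoidal fit.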

[3] = test system: H2405 cells; assay: H2405 cell proliferation assay (1), resazurin, 96-well; assay type: cell-based; conditions: Homo sapiens, NCI-H2405, inhibition of cell proliferation
Method: H2405 Cell Proliferation Assay (1)
H2405 cells (catalog #CRL-5944) are obtained from the American Type Culture Collect (ATTC, Manassas, VA). Briefly, cells were grown in RPMI 1640 supplemented with 5% characterized fetal bovine serum (Invitrogen, Carlsbad, CA) and 1% Penicillin/Streptomycin/L-Glutamine at 37° C., 5% CO2, and 95% humidity. Cells are expanded until reaching 70-95% confluency at which point they are subcultured or harvested for assay use. A serial dilution of test compound is dispensed into a 96-well black clear bottom plate in triplicate. Three thousand cells are added per well in 200 μL complete growth medium in the 96-well plate. Plates are incubated for 67-72 hours at 37° C., 5% CO2, and 95% humidity. At the end of the incubation, 40 μL of a 440 μM solution of resazurin (Sigma, St. Louis, MO) in PBS is added to each well of the plate and plates are incubated for an additional 5-6 hours at 37° C., 5% CO2, and 95% humidity. Plates are read on a Synergy2 or equivalent reader (Biotek, Winooski VT) using an excitation of 540 nm and an emission of 600 nm. Data is analyzed using Prism software (GraphPad, San Diego, CA) to calculate IC50 values.

[4] = molecular target: T3, B-Raf (V600E) kinase (Homo sapiens, UniProt P15056, V600E); assay: Biochemical assay for B-Raf (V600E).1 (coupled pyruvate kinase/lactate dehydrogenase); conditions: read-out: BRAF V600E.1 IC50
T3 construct: B-Raf (V600E) residues 416-766 with a; GST (N); purchased SignalChem
T3 sequence (P15056 416-766 V600E): as the sequence (P15056 416-766) above, with V185E counted along it
Method in brief: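 0.03 nM B-Raf(V600E) phosphorylating 30.1 nM MEK at 1 mM ATP, pH 7.5, coupled to PK/LDH, with NADH oxidation followed at 340 nm for 6 h at 30 °C. Rates taken from the 3-4 h window. IC50 from a four-parameter fit of percent inhibition.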

T1 sequence (P10398 with tags, fused parts or gaps Y301D/Y302D): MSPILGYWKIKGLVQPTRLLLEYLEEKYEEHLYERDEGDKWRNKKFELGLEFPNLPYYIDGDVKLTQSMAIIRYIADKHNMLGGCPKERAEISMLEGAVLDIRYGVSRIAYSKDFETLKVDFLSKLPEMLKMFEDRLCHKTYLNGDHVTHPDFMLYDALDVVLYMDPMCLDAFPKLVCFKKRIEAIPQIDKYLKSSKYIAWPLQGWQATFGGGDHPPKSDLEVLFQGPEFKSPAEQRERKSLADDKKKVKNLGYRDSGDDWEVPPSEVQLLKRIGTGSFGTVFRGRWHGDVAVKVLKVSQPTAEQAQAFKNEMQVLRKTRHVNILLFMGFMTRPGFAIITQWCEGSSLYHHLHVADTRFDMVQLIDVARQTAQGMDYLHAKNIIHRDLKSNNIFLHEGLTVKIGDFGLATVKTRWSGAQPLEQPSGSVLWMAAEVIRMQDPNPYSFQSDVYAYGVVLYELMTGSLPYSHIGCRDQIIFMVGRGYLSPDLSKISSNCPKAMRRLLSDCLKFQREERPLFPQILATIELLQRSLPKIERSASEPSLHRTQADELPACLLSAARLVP

Q: Which results are given for `Cc1ncc(NC(=O)NCCC(C)(C)F)cc1-c1nccc(-c2ccnc(NC(=O)C3CC3)c2)n1` [Example 130]?
A: IC50 [1]: > 1000 nM; IC50 [2]: 100 to 500 nM; IC50 [3]: 1000 to 10000 nM; IC50 [4]: ≤ 100 nM

Q: Which results are given for `Cc1cc(F)c(NC(=O)NCCC(C)(C)C)cc1-c1cc(-c2ccnc(NC(=O)C3CC3)c2)cnn1` [Example 131]?
A: IC50 [1]: 100 to 500 nM; IC50 [2]: ≤ 100 nM; IC50 [3]: 100 to 500 nM; IC50 [4]: ≤ 100 nM

Q: `CNC(=O)c1cc(-c2cnnc(-c3cc(NC(=O)NCCC(C)(C)F)c(F)cc3C)c2)ccn1` [Example 132] was tested. Which IC50 [1] did it give?
A: The IC50 was > 1000 nM.

Q: And the IC50 [2]?
A: Its IC50 is 100 to 500 nM.

Q: What about the IC50 [3] of the same compound?
A: Its IC50 is 1000 to 10000 nM.

Q: And the IC50 [4]?
A: Its IC50 is ≤ 100 nM.

Q: With `Cc1ncc(NC(=O)NCCC2(C)CC2)cc1-c1cc(OCCO)nc(-c2ccnc(NC(=O)C3CC3)c2)n1` [Example 133] as the compound, how does the IC50 [1] read?
A: The IC50 was 500 to 1000 nM.

Q: And the IC50 [2]?
A: The IC50 was ≤ 100 nM.

Q: What about the IC50 [3] of the same compound?
A: Its IC50 is 500 to 1000 nM.

Q: What about the IC50 [4] of the same compound?
A: The IC50 was ≤ 100 nM.

Q: With `Cc1cc(F)c(NC(=O)NCCC2(C)CC2)cc1-c1ccnc(-c2ccnc(NC(=O)C3CC3)c2)c1` [Example 134] as the compound, how does the IC50 [1] read?
A: Its IC50 is 500 to 1000 nM.

Q: And the IC50 [2]?
A: Its IC50 is ≤ 100 nM.

Q: What about the IC50 [3] of the same compound?
A: The IC50 was 500 to 1000 nM.

Q: What about the IC50 [4] of the same compound?
A: Its IC50 is ≤ 100 nM.

Q: Which IC50 [1] does the source give for `COC(=O)Nc1cc(-c2nccc(-c3cc(NC(=O)NCCC4(C)CC4)cnc3C)n2)ccn1` [Example 135] here?
A: The IC50 was > 1000 nM.

Q: And the IC50 [2]?
A: Its IC50 is 100 to 500 nM.

Q: What about the IC50 [3] of the same compound?
A: The IC50 was 1000 to 10000 nM.

Q: And the IC50 [4]?
A: Its IC50 is ≤ 100 nM.

Q: For `Cc1ncc(NC(=O)NCCC(C)(C)F)cc1-c1ccnc(-c2ccnc(NC(=O)C3CC3)c2)n1` [Example 136], which IC50 [1] is on record?
A: Its IC50 is > 1000 nM.

Q: And the IC50 [2]?
A: The IC50 was ≤ 100 nM.

Q: And the IC50 [3]?
A: Its IC50 is 1000 to 10000 nM.

Q: And the IC50 [4]?
A: Its IC50 is ≤ 100 nM.

Q: With `COC1(CCNC(=O)Nc2cnc(C)c(-c3ccnc(-c4ccnc(NC(=O)C5CC5)c4)n3)c2)CC1` [Example 137] as the compound, how does the IC50 [1] read?
A: Its IC50 is > 1000 nM.

Q: What about the IC50 [2] of the same compound?
A: The IC50 was 100 to 500 nM.

Q: And the IC50 [3]?
A: Its IC50 is 1000 to 10000 nM.

Q: What about the IC50 [4] of the same compound?
A: Its IC50 is ≤ 100 nM.

Q: With `COC(=O)Nc1cc(-c2cccc(-c3cc(NC(=O)NCCC4(OC)CC4)cnc3C)c2)ncn1` [Example 138] as the compound, how does the IC50 [1] read?
A: Its IC50 is > 1000 nM.

Q: What about the IC50 [2] of the same compound?
A: Its IC50 is 100 to 500 nM.

Q: And the IC50 [3]?
A: The IC50 was 1000 to 10000 nM.

Q: What about the IC50 [4] of the same compound?
A: The IC50 was ≤ 100 nM.

Q: What does the source list for `Cc1cc(F)c(NC(=O)NCCC(C)(C)F)cc1-c1cc(-c2ccnc(NC(=O)C3CC3)c2)cnn1` [Example 139]?
A: IC50 [1]: > 1000 nM; IC50 [2]: ≤ 100 nM; IC50 [3]: 500 to 1000 nM; IC50 [4]: ≤ 100 nM

Q: Which results are given for `COC(=O)Nc1cc(-c2cnnc(-c3cc(NC(=O)NCCC(C)(C)OC)c(F)cc3C)c2)ccn1` [Example 140]?
A: IC50 [1]: > 1000 nM; IC50 [2]: 100 to 500 nM; IC50 [3]: 1000 to 10000 nM; IC50 [4]: ≤ 100 nM

Q: `COC(=O)Nc1cc(-c2cnnc(-c3cc(NC(=O)NCCC(C)(C)F)c(F)cc3C)c2)ccn1` [Example 141] was tested. Which IC50 [1] did it give?
A: Its IC50 is > 1000 nM.

Q: And the IC50 [2]?
A: Its IC50 is ≤ 100 nM.

Q: What about the IC50 [3] of the same compound?
A: The IC50 was 1000 to 10000 nM.

Q: What about the IC50 [4] of the same compound?
A: Its IC50 is ≤ 100 nM.

Q: With `COC(C)(C)CCNC(=O)Nc1cc(-c2cc(-c3ccnc(NC(=O)C4CC4)c3)cnn2)c(C)cc1F` [Example 142] as the compound, how does the IC50 [1] read?
A: Its IC50 is > 1000 nM.

Q: And the IC50 [2]?
A: Its IC50 is ≤ 100 nM.

Q: And the IC50 [3]?
A: The IC50 was 500 to 1000 nM.

Q: What about the IC50 [4] of the same compound?
A: The IC50 was ≤ 100 nM.

Q: `COC(=O)Nc1cc(-c2nccc(-c3cc(NC(=O)NCCC4(OC)CC4)cnc3C)n2)ccn1` [Example 143] was tested. Which IC50 [1] did it give?
A: Its IC50 is > 1000 nM.

Q: And the IC50 [2]?
A: The IC50 was 500 to 1000 nM.

Q: And the IC50 [3]?
A: Its IC50 is 1000 to 10000 nM.

Q: And the IC50 [4]?
A: The IC50 was ≤ 100 nM.

Q: What does the source list for `Cc1ncc(NC(=O)NC2CC(C)(C)C2)cc1-c1cc(OCCO)nc(-c2ccnc(NC(=O)C3CC3)c2)n1` [Example 144]?
A: IC50 [1]: > 1000 nM; IC50 [2]: ≤ 100 nM; IC50 [3]: 100 to 500 nM; IC50 [4]: ≤ 100 nM

Q: Which IC50 [1] does the source give for `COC(=O)Nc1cc(-c2cc(-c3cc(NC(=O)NCCC4(OC)CC4)c(F)cc3C)ccn2)ccn1` [Example 145] here?
A: The IC50 was > 1000 nM.

Q: And the IC50 [2]?
A: The IC50 was ≤ 100 nM.

Q: What about the IC50 [3] of the same compound?
A: The IC50 was 500 to 1000 nM.

Q: What about the IC50 [4] of the same compound?
A: Its IC50 is ≤ 100 nM.

Q: `COC(=O)Nc1cc(-c2nccc(-c3cc(NC(=O)NCCC4(OC)CC4)c(F)cc3C)n2)ccn1` [Example 146] was tested. Which IC50 [1] did it give?
A: The IC50 was > 1000 nM.

Q: What about the IC50 [2] of the same compound?
A: The IC50 was ≤ 100 nM.

Q: And the IC50 [3]?
A: Its IC50 is 1000 to 10000 nM.

Q: What about the IC50 [4] of the same compound?
A: The IC50 was ≤ 100 nM.

Q: What does the source list for `COC(=O)Nc1cc(-c2nccc(-c3cc(NC(=O)NCCC(C)(C)F)c(F)cc3C)n2)ccn1` [Example 147]?
A: IC50 [1]: > 1000 nM; IC50 [2]: ≤ 100 nM; IC50 [3]: 1000 to 10000 nM; IC50 [4]: ≤ 100 nM

Q: Which results are given for `COC[C@H]1CCN(C(=O)Nc2cc(-c3cc(-c4ccnc(NC(=O)OC)c4)cnn3)c(C)cc2F)C1` [Example 148]?
A: IC50 [1]: > 1000 nM; IC50 [2]: 500 to 1000 nM; IC50 [3]: 1000 to 10000 nM; IC50 [4]: ≤ 100 nM
